Earlier results on 2 compounds are cited in patent US8071602B2, “Piperidine and piperazine derivatives” (M's Science Corporation, priority 2005, dated 2011).

SMILES strings stand for the structures.

For the series, the system named is rats. As to conditions: microinjection.

On to `Cc1ccccc1NC(=N)Nc1ccccc1C` [DTG, 1,3-di-2-tolyl-guanidine], for which the neck dystonia entry is “induced neck dystonia”.

With `COc1ccc(CCN2CCN(CCCc3ccccc3)CC2)cc1OC` [SA-4503, 1-[2-(3,4-dimethoxyphenyl)ethyl]-4-(3-phenylpropyl)piperazine], the neck dystonia entry is given as “no effect”.
